Assay results taken from ChEMBL document CHEMBL3991601, “The target landscape of clinical kinase drugs” (Science, 2017).
Active and inactive are the calls of the source. Rule as the data show it, for most assays here: actives have a measured Kd and inactives only a lower limit.

Experiments:
[1] = biological target: Atypical kinase COQ8A, mitochondrial (Homo sapiens, UniProt Q8NI60)
[2] = biological target: Tyrosine-protein kinase ABL2 (Homo sapiens, UniProt P42684)
[3] = biological target: Bone morphogenetic protein receptor type-1B (Homo sapiens, UniProt O00238)
Sequence of Bone morphogenetic protein receptor type-1B (O00238 whole entry): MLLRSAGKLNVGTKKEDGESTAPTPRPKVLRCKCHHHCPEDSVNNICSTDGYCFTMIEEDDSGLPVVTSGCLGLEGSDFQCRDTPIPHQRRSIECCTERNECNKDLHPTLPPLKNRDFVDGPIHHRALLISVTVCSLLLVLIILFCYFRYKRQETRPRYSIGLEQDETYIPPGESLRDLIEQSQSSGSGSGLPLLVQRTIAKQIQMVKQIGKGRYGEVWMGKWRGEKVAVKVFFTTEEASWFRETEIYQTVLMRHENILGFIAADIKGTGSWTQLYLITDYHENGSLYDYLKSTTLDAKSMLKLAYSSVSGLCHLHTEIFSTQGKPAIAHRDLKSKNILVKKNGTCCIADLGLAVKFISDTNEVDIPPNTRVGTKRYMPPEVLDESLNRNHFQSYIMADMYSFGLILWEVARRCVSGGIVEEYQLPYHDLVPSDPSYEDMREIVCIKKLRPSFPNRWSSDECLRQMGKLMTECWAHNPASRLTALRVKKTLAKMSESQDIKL

[4] = biological target: T1, RNA cytidine acetyltransferase (Homo sapiens, UniProt Q9H0A0)
T1 sequence (Q9H0A0 whole entry): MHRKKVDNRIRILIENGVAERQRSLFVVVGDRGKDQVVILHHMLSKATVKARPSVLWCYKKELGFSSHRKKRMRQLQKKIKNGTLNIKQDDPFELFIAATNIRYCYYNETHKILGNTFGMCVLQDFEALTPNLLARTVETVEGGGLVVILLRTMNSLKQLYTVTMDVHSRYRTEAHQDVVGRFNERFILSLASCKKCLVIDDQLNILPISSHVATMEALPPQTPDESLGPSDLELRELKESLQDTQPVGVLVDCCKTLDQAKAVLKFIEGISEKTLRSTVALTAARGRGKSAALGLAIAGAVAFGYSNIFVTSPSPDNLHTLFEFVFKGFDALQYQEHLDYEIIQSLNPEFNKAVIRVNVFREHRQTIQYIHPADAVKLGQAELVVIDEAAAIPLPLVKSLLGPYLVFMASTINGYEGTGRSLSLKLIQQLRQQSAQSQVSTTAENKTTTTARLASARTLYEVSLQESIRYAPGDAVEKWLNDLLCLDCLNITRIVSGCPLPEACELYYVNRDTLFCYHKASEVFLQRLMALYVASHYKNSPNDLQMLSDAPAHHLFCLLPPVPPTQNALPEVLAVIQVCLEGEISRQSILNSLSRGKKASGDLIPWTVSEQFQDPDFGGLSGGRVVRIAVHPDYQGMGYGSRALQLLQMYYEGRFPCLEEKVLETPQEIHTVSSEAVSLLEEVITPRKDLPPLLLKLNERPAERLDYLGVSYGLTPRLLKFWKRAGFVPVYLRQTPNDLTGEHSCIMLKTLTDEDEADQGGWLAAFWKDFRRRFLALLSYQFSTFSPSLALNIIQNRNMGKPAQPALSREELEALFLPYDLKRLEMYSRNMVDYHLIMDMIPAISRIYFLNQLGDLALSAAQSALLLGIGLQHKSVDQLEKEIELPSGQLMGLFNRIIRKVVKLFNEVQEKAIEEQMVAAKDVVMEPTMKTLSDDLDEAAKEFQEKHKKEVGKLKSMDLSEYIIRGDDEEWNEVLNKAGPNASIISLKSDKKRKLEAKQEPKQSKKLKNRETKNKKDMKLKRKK

[5] = biological target: Ephrin type-A receptor 7 (Homo sapiens, UniProt Q15375)
Sequence of Ephrin type-A receptor 7 (Q15375 whole entry): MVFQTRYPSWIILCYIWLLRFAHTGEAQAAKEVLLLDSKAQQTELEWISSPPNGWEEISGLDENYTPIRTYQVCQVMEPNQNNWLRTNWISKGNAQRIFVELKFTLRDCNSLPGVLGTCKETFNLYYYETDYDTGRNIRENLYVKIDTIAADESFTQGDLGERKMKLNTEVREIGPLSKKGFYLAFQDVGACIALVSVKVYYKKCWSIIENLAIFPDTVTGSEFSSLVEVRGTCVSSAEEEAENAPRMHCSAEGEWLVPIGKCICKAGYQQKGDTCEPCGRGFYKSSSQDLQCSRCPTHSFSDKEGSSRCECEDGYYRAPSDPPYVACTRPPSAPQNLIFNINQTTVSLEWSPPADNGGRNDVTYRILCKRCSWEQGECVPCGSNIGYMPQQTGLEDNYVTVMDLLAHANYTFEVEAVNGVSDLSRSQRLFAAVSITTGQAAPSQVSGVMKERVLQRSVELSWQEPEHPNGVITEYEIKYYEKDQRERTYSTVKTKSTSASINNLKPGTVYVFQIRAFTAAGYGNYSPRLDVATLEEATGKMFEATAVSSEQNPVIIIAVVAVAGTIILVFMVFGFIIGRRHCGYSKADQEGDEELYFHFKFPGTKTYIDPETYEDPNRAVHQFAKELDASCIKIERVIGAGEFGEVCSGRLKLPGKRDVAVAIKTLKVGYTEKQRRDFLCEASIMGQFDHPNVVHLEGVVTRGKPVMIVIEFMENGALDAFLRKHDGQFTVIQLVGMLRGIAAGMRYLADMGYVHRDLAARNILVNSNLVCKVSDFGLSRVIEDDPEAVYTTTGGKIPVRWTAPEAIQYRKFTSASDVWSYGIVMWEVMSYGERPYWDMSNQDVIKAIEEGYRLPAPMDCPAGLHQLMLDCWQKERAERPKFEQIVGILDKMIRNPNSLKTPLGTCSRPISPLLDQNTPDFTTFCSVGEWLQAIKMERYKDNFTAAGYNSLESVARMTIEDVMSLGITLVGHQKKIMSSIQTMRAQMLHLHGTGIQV

[6] = biological target: T2, Cysteine--tRNA ligase, cytoplasmic (Homo sapiens, UniProt P49589)
T2 sequence (P49589 whole entry): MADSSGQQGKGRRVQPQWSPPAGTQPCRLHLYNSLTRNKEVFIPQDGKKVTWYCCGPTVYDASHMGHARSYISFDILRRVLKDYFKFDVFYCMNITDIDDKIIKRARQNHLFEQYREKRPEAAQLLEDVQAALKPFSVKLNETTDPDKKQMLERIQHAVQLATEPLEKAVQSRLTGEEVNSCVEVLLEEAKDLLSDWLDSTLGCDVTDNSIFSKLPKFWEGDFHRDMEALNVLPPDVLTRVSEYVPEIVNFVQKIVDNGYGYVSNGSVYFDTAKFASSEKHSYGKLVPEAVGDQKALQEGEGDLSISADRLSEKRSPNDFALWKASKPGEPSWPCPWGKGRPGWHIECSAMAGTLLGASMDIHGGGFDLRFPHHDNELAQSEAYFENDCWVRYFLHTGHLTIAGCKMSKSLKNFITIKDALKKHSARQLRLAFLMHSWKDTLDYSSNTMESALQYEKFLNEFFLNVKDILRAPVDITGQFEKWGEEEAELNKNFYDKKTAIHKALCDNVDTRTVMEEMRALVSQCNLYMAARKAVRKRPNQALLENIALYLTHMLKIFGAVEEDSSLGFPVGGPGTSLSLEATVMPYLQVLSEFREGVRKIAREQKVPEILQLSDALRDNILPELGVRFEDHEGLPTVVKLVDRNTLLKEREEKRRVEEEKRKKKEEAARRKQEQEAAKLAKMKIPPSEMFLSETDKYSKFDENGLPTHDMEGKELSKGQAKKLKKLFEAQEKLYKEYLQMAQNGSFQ

[7] = biological target: S-adenosylmethionine synthase isoform type-2 (Homo sapiens, UniProt P31153)
Sequence of S-adenosylmethionine synthase isoform type-2 (P31153 whole entry, canonical isoform): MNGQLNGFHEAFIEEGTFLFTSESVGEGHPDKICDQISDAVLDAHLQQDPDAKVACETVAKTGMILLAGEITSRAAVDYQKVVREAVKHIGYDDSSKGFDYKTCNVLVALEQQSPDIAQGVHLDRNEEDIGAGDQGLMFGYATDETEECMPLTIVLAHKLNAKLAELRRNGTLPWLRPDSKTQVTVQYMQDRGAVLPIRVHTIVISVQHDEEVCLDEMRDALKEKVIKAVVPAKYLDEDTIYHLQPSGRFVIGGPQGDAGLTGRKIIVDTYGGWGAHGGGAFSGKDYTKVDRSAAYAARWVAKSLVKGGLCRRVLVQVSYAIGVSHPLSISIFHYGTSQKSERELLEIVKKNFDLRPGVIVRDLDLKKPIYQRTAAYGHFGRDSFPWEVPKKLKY

[8] = biological target: T3, Serine/threonine-protein kinase 4 (Homo sapiens, UniProt Q13043)
T3 sequence (Q13043 whole entry): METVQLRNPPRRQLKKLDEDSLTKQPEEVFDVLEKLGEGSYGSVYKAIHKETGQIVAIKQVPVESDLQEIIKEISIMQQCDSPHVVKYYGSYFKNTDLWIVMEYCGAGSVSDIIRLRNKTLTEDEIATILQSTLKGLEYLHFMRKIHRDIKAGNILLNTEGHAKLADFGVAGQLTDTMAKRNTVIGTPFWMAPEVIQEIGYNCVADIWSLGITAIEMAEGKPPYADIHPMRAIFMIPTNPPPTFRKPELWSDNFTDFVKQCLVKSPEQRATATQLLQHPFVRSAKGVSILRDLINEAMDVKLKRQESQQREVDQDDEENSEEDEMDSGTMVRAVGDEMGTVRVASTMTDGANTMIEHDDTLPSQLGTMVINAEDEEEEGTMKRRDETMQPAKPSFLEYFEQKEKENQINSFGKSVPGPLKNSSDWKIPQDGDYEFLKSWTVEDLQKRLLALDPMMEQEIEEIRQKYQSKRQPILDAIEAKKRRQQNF

[9] = biological target: Dual specificity mitogen-activated protein kinase kinase 2 (Homo sapiens, UniProt P36507)
Sequence of Dual specificity mitogen-activated protein kinase kinase 2 (P36507 whole entry): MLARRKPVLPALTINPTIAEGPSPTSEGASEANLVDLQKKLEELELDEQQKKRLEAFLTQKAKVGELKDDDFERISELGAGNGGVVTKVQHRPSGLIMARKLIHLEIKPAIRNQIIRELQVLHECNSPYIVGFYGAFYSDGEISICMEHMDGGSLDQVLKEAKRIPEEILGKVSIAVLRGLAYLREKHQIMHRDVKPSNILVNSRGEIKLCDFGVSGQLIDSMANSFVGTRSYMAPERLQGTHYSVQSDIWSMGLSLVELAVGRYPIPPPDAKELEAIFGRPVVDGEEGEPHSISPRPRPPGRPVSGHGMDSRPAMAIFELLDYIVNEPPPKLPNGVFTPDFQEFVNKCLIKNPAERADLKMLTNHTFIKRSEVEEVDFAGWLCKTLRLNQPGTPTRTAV
Also: in the data inactive means no Kd found up to 30 µM.

Sequence of Tyrosine-protein kinase ABL2 (P42684 whole entry): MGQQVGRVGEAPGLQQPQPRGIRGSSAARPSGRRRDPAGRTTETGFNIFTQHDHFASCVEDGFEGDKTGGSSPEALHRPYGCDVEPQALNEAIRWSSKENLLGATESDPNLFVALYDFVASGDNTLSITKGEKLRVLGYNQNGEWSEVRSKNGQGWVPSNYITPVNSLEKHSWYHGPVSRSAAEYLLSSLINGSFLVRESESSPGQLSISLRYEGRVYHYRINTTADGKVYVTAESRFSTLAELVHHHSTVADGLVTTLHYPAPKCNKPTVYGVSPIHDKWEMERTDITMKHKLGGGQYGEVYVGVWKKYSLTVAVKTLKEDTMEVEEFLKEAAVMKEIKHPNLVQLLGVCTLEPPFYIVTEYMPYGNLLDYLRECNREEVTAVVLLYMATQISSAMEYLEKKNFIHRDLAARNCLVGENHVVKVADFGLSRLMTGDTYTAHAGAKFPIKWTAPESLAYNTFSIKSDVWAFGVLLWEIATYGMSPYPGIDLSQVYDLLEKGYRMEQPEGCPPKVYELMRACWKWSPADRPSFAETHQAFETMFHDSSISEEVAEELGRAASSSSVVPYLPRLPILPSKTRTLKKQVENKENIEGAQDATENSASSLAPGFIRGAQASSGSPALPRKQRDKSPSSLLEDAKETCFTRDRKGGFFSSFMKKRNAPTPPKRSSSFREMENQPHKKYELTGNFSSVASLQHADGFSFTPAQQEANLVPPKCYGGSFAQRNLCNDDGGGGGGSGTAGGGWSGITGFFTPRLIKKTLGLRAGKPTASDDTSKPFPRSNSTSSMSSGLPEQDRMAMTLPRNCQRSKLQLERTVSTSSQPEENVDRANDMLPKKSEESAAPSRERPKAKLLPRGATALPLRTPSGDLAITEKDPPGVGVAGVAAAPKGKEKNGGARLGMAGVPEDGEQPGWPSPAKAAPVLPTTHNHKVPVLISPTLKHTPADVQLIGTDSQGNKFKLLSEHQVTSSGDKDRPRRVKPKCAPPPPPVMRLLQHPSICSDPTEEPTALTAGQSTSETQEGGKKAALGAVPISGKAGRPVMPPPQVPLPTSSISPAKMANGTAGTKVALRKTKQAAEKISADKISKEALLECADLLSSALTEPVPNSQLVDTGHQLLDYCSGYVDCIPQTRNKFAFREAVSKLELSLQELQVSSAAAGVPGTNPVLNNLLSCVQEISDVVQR
Sequence of Atypical kinase COQ8A, mitochondrial (Q8NI60 whole entry): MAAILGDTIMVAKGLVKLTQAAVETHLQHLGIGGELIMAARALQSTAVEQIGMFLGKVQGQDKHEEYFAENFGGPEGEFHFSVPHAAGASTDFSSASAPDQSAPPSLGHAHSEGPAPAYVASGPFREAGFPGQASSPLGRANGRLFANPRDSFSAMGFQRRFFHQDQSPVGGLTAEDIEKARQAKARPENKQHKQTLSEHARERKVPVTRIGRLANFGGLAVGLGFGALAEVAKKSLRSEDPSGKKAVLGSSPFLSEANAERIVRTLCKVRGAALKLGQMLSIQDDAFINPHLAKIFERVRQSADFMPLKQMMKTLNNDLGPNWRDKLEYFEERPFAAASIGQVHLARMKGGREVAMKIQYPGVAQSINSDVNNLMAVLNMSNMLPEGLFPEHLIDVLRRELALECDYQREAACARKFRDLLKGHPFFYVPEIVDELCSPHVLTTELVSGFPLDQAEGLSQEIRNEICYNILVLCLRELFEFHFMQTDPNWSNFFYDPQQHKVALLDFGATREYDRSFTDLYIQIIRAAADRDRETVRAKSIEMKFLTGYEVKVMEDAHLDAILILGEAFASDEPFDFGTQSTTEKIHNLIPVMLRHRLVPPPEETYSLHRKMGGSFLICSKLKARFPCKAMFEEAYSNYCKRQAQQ

Row | Structure (SMILES) | Kd [1] | Kd [2] | Kd [3] | Kd [4] | Kd [5] | Kd [6] | Kd [7] | Kd [8] | Kd [9]
1 | COc1cc2nccc(Oc3ccc(NC(=O)C4(C(=O)Nc5ccc(F)cc5)CC4)cc3)c2cc1OC [CABOZANTINIB] | > 30 µM (inactive) | 0.918 µM (active) | > 30 µM (inactive) | > 30 µM (inactive) | > 30 µM (inactive) | > 30 µM (inactive) | > 30 µM (inactive) | > 30 µM (inactive) | > 30 µM (inactive)
2 | c1cc(OCCN2CCCCC2)cc(-c2n[nH]c3ccc(-c4nc[nH]n4)cc23)c1 [CC-401] | > 30 µM (inactive) | > 30 µM (inactive) | > 30 µM (inactive) | > 30 µM (inactive) | > 30 µM (inactive) | > 30 µM (inactive) | > 30 µM (inactive) | > 30 µM (inactive) | > 30 µM (inactive)
3 | CC1(COc2ccc3c(c2)ncn3-c2ccc3cccc(N4CCC(N)CC4)c3n2)COC1 [CRENOLANIB] | > 30 µM (inactive) | > 30 µM (inactive) | > 30 µM (inactive) | > 30 µM (inactive) | > 30 µM (inactive) | > 30 µM (inactive) | > 30 µM (inactive) | 0.702 µM (active) | > 30 µM (inactive)
4 | COc1cc2ncnc(Nc3ccc(F)c(Cl)c3)c2cc1NC(=O)/C=C/CN1CCCCC1 [DACOMITINIB ANHYDROUS] | > 30 µM (inactive) | > 30 µM (inactive) | > 30 µM (inactive) | > 30 µM (inactive) | > 30 µM (inactive) | > 30 µM (inactive) | > 30 µM (inactive) | > 30 µM (inactive) | > 30 µM (inactive)
5 | CNC(=O)c1ccc(Nc2ncc(C(F)(F)F)c(NCc3nccnc3N(C)S(C)(=O)=O)n2)cc1 [DEFACTINIB] | > 30 µM (inactive) | > 30 µM (inactive) | > 30 µM (inactive) | > 30 µM (inactive) | > 30 µM (inactive) | > 30 µM (inactive) | > 30 µM (inactive) | 2.45 µM (active) | > 30 µM (inactive)
6 | COc1cc(Nc2ncc(F)c(Nc3ccc4c(n3)N(COP(=O)(O)O)C(=O)C(C)(C)O4)n2)cc(OC)c1OC [FOSTAMATINIB] | > 30 µM (inactive) | > 30 µM (inactive) | > 30 µM (inactive) | > 30 µM (inactive) | > 30 µM (inactive) | > 30 µM (inactive) | > 30 µM (inactive) | > 30 µM (inactive) | > 30 µM (inactive)
7 | Cc1c(Cn2c(C)nc3c(C(=O)O)cc(N4CCOCC4)cc32)cccc1C(F)(F)F [GSK-2636771] | > 30 µM (inactive) | > 30 µM (inactive) | > 30 µM (inactive) | > 30 µM (inactive) | > 30 µM (inactive) | > 30 µM (inactive) | > 30 µM (inactive) | > 30 µM (inactive) | > 30 µM (inactive)
8 | O=S(=O)(c1cccc2c(O)nccc12)N1CCCNCC1 [HYDROXYFASUDIL] | > 30 µM (inactive) | > 30 µM (inactive) | > 30 µM (inactive) | > 30 µM (inactive) | > 30 µM (inactive) | > 30 µM (inactive) | > 30 µM (inactive) | > 30 µM (inactive) | > 30 µM (inactive)
9 | C#Cc1cccc(Nc2ncnc3cc4c(cc23)OCCOCCOCCO4)c1 [ICOTINIB] | > 30 µM (inactive) | > 30 µM (inactive) | > 30 µM (inactive) | > 30 µM (inactive) | > 30 µM (inactive) | 0.652 µM (active) | > 30 µM (inactive) | > 30 µM (inactive) | > 30 µM (inactive)
10 | C[C@]1(O)C[C@@H](c2nc(-c3ccc4ccc(-c5ccccc5)nc4c3)c3c(N)nccn32)C1 [LINSITINIB] | > 30 µM (inactive) | > 30 µM (inactive) | > 30 µM (inactive) | > 30 µM (inactive) | > 30 µM (inactive) | > 30 µM (inactive) | > 30 µM (inactive) | > 30 µM (inactive) | 1.14 µM (active)
11 | Cc1ccc(C(=O)Nc2ccc(Oc3cc4cnn(C)c4cc3-c3cn[nH]c3)c(F)c2)c(=O)n1-c1ccc(F)cc1 [MERESTINIB] | > 30 µM (inactive) | > 30 µM (inactive) | > 30 µM (inactive) | > 30 µM (inactive) | > 30 µM (inactive) | > 30 µM (inactive) | > 30 µM (inactive) | > 30 µM (inactive) | > 30 µM (inactive)
12 | C=CC(=O)Nc1cc(Nc2nccc(-c3cn(C)c4ccccc34)n2)c(OC)cc1N(C)CCN(C)C [OSIMERTINIB] | > 30 µM (inactive) | > 30 µM (inactive) | > 30 µM (inactive) | > 30 µM (inactive) | > 30 µM (inactive) | 0.012 µM | > 30 µM (inactive) | > 30 µM (inactive) | > 30 µM (inactive)
13 | COc1cc(F)c(F)c(Nc2ccc(I)cc2F)c1NS(=O)(=O)C1(C[C@H](O)CO)CC1 [REFAMETINIB] | > 30 µM (inactive) | > 30 µM (inactive) | > 30 µM (inactive) | > 30 µM (inactive) | > 30 µM (inactive) | > 30 µM (inactive) | > 30 µM (inactive) | > 30 µM (inactive) | 0.176 µM (active)

Further lines, results first:

Row | Kd [1] | Kd [2] | Kd [3] | Kd [4] | Kd [5] | Kd [6] | Kd [7] | Kd [8] | Kd [9] | Structure (SMILES)
14 | > 30 µM (inactive) | > 30 µM (inactive) | > 30 µM (inactive) | > 30 µM (inactive) | > 30 µM (inactive) | > 30 µM (inactive) | > 30 µM (inactive) | > 30 µM (inactive) | > 30 µM (inactive) | COc1cc2ncnc3c2cc1OCCCCCN(C)Cc1ccc(Br)cc1N3 [JNJ-26483327]
15 | > 30 µM (inactive) | > 30 µM (inactive) | > 30 µM (inactive) | > 30 µM (inactive) | > 30 µM (inactive) | > 30 µM (inactive) | > 30 µM (inactive) | > 30 µM (inactive) | > 30 µM (inactive) | COc1cccc2cc(-c3nc([C@H]4CC[C@H](C(=O)O)CC4)n4ncnc(N)c34)[nH]c12 [OSI-027]
16 | > 30 µM (inactive) | > 30 µM (inactive) | > 30 µM (inactive) | > 30 µM (inactive) | > 30 µM (inactive) | > 30 µM (inactive) | > 30 µM (inactive) | > 30 µM (inactive) | > 30 µM (inactive) | O=C(Nc1ccc(OC(F)(F)F)cc1)c1sccc1NCc1ccnc2ccccc12 [OSI-930]
